{
  "source": "patent US20220265836A1",
  "about": "“COMPLEX, MEDICINE, THERAPEUTIC AGENT FOR CANCER, KIT AND CONJUGATE” (TOKYO INSTITUTE OF TECHNOLOGY, priority 2019, published 2022)",
  "key": {"[1]": {"assay": "Formation of ternary complex encapsulating various substances: particle diameter by DLS or FCS", "assay_type": "physicochemical", "conditions": "for Particle diameter of encapsulated substance: substance alone", "procedure": "Ternary complexes were formed using not only the GFP protein but also a small molecule medicine, a peptide, an adeno-associated virus, an inorganic particle, a nucleic acid, and the like, and the particle diameter change was measured. As the measurement method, dynamic light scattering (DLS) or fluorescence correlation spectroscopy (FCS) was used.\nTemperature: 25° C., measurement time: 10 seconds, number of integrations: 10 times\nThe method for measuring dynamic light scattering is as follows. Dynamic Light Scattering (DLS Zetasizer Nano ZS (manufactured by Malvern Instruments) was used to carry out DLS measurement at a detection angle of […] and a temperature of 25° C. A He—Ne laser (633 nm) was used as the incident beam. Each complex solution was added to a small glass cuvette (capacity: 12 μL, ZEN2112, manufactured by Malvern Instruments). The data obtained from the decay rate in the photon correlation function was analyzed by the Cumulant method, and then the hydrodynamic diameter (the arithmetic mean diameter based on the number of complexes) of each complex was calculated by the above Einstein-Stokes equation. […]\nThe pitavastatin solution and the tannic acid solution were mixed to adjust a pitavastatin/TA solution. Then, PEG-P[Lys(FPBA)10]20 was added to the pitavastatin/TA solution to adjust a pitavastatin/TA/PEG-P[Lys(FPBA)10]20 (a pitavastatin ternary complex) solution. […]"}, "[2]": {"assay": "Bonding force by alizarin red method, PEG-FPBA", "assay_type": "binding", "conditions": "Ex 468 nm/Em 572 nm", "procedure": "The bonding force was evaluated by the alizarin red method, which has been established as a method for quantifying the bonding force between boronic acid and the diol structure. The principle of the alizarin red method is briefly shown below by taking the method carried out in present Examples as an example. […]\nSolution A, and Solution B or Solution C were mixed in various ratios and the fluorescence measurement was performed (Ex=468 nm, Em=572 nm) using a disposable cell. After substituting the obtained fluorescence intensity and the concentration of each FPBA into the following expression (1) and creating a calibration curve by the least squares method, the equilibrium constant K0 of the ARS-FPBA system was calculated from the slope of the calibration curve. Next, Solution B or Solution C was mixed with Solution D, E, F, or G containing each diol compound in various ratios in the combination of B+D, B+E, C+F, and C+G, and the fluorescence measurement was performed (Ex=468 nm, Em=572 nm) using a disposable cell. After substituting the obtained fluorescence intensity and the concentration of each diol compound into the following expression (2) and creating a calibration curve by the least squares method, the equilibrium constant K1 of each diol compound-BPA system was calculated from the slope of the calibration curve. […]"}, "[3]": {"assay": "Bonding force by alizarin red method, PEG-P[Lys(FPBA)10]20", "assay_type": "binding", "conditions": "for relative equilibrium constant with PEG10k-P[Lys(FPBA)10]20: alizarin red method, Ex 468 nm/Em 572 nm", "procedure": "The bonding force was evaluated by the alizarin red method, which has been established as a method for quantifying the bonding force between boronic acid and the diol structure. The principle of the alizarin red method is briefly shown below by taking the method carried out in present Examples as an example.\n[Final Concentrations of GFP, TA, PEG-FPBA, and PEG-P[Lys(FPBA)10]20] • Solution A: ARS (9.0×10^−6 M) • Solution B: ARS (9.0×10^−6 M)+PEG-FPBA (FPBA concentration: 2.0×10^−3 M) • Solution C: ARS (9.0×10^−6 M)+PEG-P[Lys(FPBA)10]20 (FPBA concentration: 2.0×10^−3 M) • Solution D: ARS (9.0×10^−6 M)+PEG-FPBA (FPBA concentration: 2.0×10^−3 M)+tannic acid (diol concentration=5.0×10^−4 M) • Solution E: ARS (9.0×10^−6 M)+PEG-FPBA (2.0×10^−3 M)+gallic acid (diol concentration=5.0×10^−4 M) • Solution F: ARS (9.0×10^−6 M)+PEG-P[Lys(FPBA)10]20 (FPBA concentration: 2.0×10^−3 M)+tannic acid (diol concentration=5.0×10^−4 M) • Solution G: ARS (9.0×10^−6 M)+PEG-P[Lys(FPBA)10]20 (FPBA concentration: 2.0×10^−3 M)+gallic acid (diol concentration=5.0×10^−4 M)\nSolution A, and Solution B or Solution C were mixed in various ratios and the fluorescence measurement was performed (Ex=468 nm, Em=572 nm) using a disposable cell. After substituting the obtained fluorescence intensity and the concentration of each FPBA into the following expression (1) and creating a calibration curve by the least squares method, the equilibrium constant K0 of the ARS-FPBA system was calculated from the slope of the calibration curve. Next, Solution B or Solution C was mixed with Solution D, E, F, or G containing each diol compound in various ratios in the combination of B+D, B+E, C+F, and C+G, and the fluorescence measurement was performed (Ex=468 nm, Em=572 nm) using a disposable cell. After substituting the obtained fluorescence intensity and the concentration of each diol compound into the following expression (2) and creating a calibration curve by the least squares method, the equilibrium constant K1 of each diol compound-BPA system was calculated from the slope of the calibration curve. The equilibrium constant obtained from the calibration curve is shown in Table 2 as a relative equilibrium constant.\n[formula] • [L0]=Concentration of FPBA added • [S0]=Concentration of diol added • [I0]=Concentration of ARS\nΔIf=Ifs−Ifa • ΔIfc=Reciprocal of intercept of graph created in ARS-FPBA system • Ifs=Fluorescence intensity of ARS-FPBA • Ifa=Fluorescence intensity of solution A • K0=Equilibrium constant of ARS-FPBA • Kf=Equilibrium constant of diol compound—equilibrium constant of FPBA"}, "[4]": {"assay": "Pharmacokinetics of rose bengal ternary complex (blood retention)", "assay_type": "in vivo, mouse", "conditions": "3 hours after intravenous administration, plasma fluorescence", "procedure": "[Final Concentrations of rose bengal, TA, and PEG-P[Lys(FPBA)10]20] • Rose bengal: 0.1 mg/mL • Tannic acid: 1.0 mg/mL • PEG-P[Lys(FBPA)10]20: 16.5 mg/mL\nThe rose bengal solution and the tannic acid solution were mixed to adjust a rose bengal/TA solution. Then, PEG-P[Lys(FPBA)10]20 was added to the rose bengal/TA solution to adjust a rose bengal solution, a rose bengal/TA complex solution, and a rose bengal/TA/PEG-P[Lys(FPBA)10]20 (a rose bengal ternary complex) solution.\n200 μl of the prepared solution described above was intravenously administered to the tail vein of the model mouse. One to three hours after the sample administration, dissection was carried out to recover blood, which was subsequently subjected to centrifugation at 5,000 g×10 minutes at 20° C. to recover 100 μl of a plasma component, and 700 μl of Passive Lysis Buffer was added thereto. Then, the fluorescence intensities (Ex/Em: 520 nm/570 nm) of the plasma component and the administered sample were measured with Spark to evaluate the blood retention. In the figure, rose bengal/TA/PEG-P[Lys(FPBA)10]20 is denoted by a rose bengal/TA/polymer."}},
  "note": "Marks after values point to notes of the source that are not given here.",
  "data": [
    {"molecule": "C=Cc1c(C)c2cc3nc(c(CC(=O)O)c4[nH]c(cc5nc(cc1[nH]2)C(C)=C5CC)c(C)c4C(=O)O)[C@@H](CCC(=O)O)[C@@H]3C", "note": "[Chlorine 6, Chlorin e6]", "values": [
      {"measurement": "Particle diameter of encapsulated substance", "setting": "[1]", "result": 1.2, "unit": "nm"}
    ]},
    {"molecule": "O=C(O)c1cc(O)c(O)c(O)c1", "note": "[Gallic acid]", "values": [
      {"measurement": "relative equilibrium constant with PEG-FPBA", "setting": "[2]", "result": "2,030"},
      {"measurement": "bonding constant with PEG-P[Lys(FPBA)10]20 as compared with PEG-FPBA", "setting": "[3]", "result": 2.5, "unit": "times"},
      {"measurement": "relative equilibrium constant with PEG10k-P[Lys(FPBA)10]20", "setting": "[3]", "result": "5,112"}
    ]},
    {"molecule": "O=C([O-])C[C@H](O)C[C@H](O)/C=C/c1c(C2CC2)nc2ccccc2c1-c1ccc(F)cc1.O=C([O-])C[C@H](O)C[C@H](O)/C=C/c1c(C2CC2)nc2ccccc2c1-c1ccc(F)cc1.[Ca+2]", "note": "[Pitavastatin calcium]", "values": [
      {"measurement": "Particle diameter of encapsulated substance", "setting": "[1]", "result": "Aggregated"},
      {"measurement": "Particle diameter of encapsulated substance", "setting": "[1]; listed as pitavastatin", "result": 4586, "unit": "nm"}
    ]},
    {"molecule": "O=C(O)c1c(Cl)c(Cl)c(Cl)c(Cl)c1-c1c2cc(I)c(=O)c(I)c-2oc2c(I)c(O)c(I)cc12", "note": "[Rose bengal]", "values": [
      {"measurement": "concentration in blood", "setting": "[4]", "result": "about 0.22%"},
      {"measurement": "Particle diameter of encapsulated substance", "setting": "[1]", "result": 0.7, "unit": "nm"}
    ]},
    {"molecule": "O=C(OC[C@H]1O[C@@H](OC(=O)c2cc(O)c(O)c(OC(=O)c3cc(O)c(O)c(O)c3)c2)[C@H](OC(=O)c2cc(O)c(O)c(OC(=O)c3cc(O)c(O)c(O)c3)c2)[C@@H](OC(=O)c2cc(O)c(O)c(OC(=O)c3cc(O)c(O)c(O)c3)c2)[C@@H]1OC(=O)c1cc(O)c(O)c(OC(=O)c2cc(O)c(O)c(O)c2)c1)c1cc(O)c(O)c(OC(=O)c2cc(O)c(O)c(O)c2)c1", "note": "[Tannic acid (TA), Tannic acid]", "values": [
      {"measurement": "relative equilibrium constant with PEG-FPBA", "setting": "[2]", "result": "1,877"},
      {"measurement": "bonding constant with PEG-P[Lys(FPBA)10]20 as compared with PEG-FPBA", "setting": "[3]", "result": 5, "unit": "times"},
      {"measurement": "relative equilibrium constant with PEG10k-P[Lys(FPBA)10]20", "setting": "[3]", "result": "8,827"}
    ]},
    {"molecule": "Bleomycin sulfate", "values": [
      {"measurement": "Particle diameter of encapsulated substance", "setting": "[1]", "result": 0.6, "unit": "nm"}
    ]},
    {"molecule": "Gelonin", "values": [
      {"measurement": "Particle diameter of encapsulated substance", "setting": "[1]", "result": 4.1, "unit": "nm"}
    ]},
    {"molecule": "β-D-galactosidase: β-D-galactosidase (βGal): Mw 540 kDa, enzyme", "values": [
      {"measurement": "Particle diameter of encapsulated substance", "setting": "[1]", "result": 13.9, "unit": "nm"},
      {"measurement": "Particle diameter of complex", "setting": "[1]; ternary complex substance/TA/PEG-P[Lys(FPBA)10]20, dynamic light scattering method", "result": "42.8* nm"},
      {"measurement": "Polydiversity (PDI)", "setting": "[1]; ternary complex, dynamic light scattering method", "result": 0.18}
    ]}
  ]
}
